# Assay results taken from paper PMC12567515, “Assessment of Carrier-Free Metallacarboranes for Targeted Radiation Therapies PBFT and BNCT: Comparative Cellular Effects and Dosimetry Studies with [o-FESAN]^− in Breast Cancer Cells” (Pharmaceuticals, 2025).
# Tests used:
# MDA-MB-231 cells [1] = test: Cytotoxicity, MTT assay before irradiation; assay type: cell-based, human; settings: MDA-MB-231, 24 h treatment
# Procedure: (§1) The cytotoxicity of Na[o-FESAN] in breast cancer cells was evaluated to help the selection of the work concentrations for the uptake and irradiation studies. Moreover, the general requirements of therapeutic drugs include, among others, low cytotoxicity and high tumor uptake.
# (§2) Before the irradiation studies, the concentrations of Na[o-FESAN] were selected. SKBR-3 and MDA-MB-231 cells were counted with a Neubauer chamber using Trypan Blue exclusion and a Zeiss Primovert microscope, seeded in 96-well plates (1–2 × 10^4 cells/200 µL medium) and incubated at 37 °C for 24 h to adhere. Then, the medium was discarded, and cells were incubated with Na[o-FESAN] at serial concentrations in complete medium in the range 1–300 µM for 24 h. After incubation, the cellular viability was determined using the MTT assay as previously described.
# SKBR-3 cells [2] = test: Cytotoxicity, MTT assay before irradiation; assay type: cell-based, human; settings: SKBR-3, 24 h treatment
# Procedure: as §1, §2
# [3] = system: MDA-MB-231 xenograft-bearing nude mice; test: Biodistribution (boron by ICP-OES) in MDA-MB-231 xenograft model; assay type: in vivo, mouse; settings: 7.5 mg B/kg i.v., 1 and 4 h post-injection
# Procedure: The biodistribution of Na[o-FESAN] (7.5 mg B/kg, i.v.) was evaluated in an MDA-MB-231 breast cancer xenograft model, and the results at 1 and 4 h are shown in Figure 2.
# All animal experiments were approved by the Animal Care and Use Committee of the Institute of Science Tokyo and performed in accordance with the Guidelines for the Care and Use of Laboratory Animals as stated by the Institute of Science Tokyo (Approval number “D2021007”). All animals were maintained under controlled conditions of temperature and humidity with ad libitum water and feeding. MDA-MB-231 tumor-bearing mice (Balb/cSlc-nu/nu, female, 5–6 weeks old, 14–20 g, Sankyo Labo Service Co., Ltd., Hamamatsu, Japan) were prepared by injecting subcutaneously (s.c.) a suspension of MDA-MB-231 cells (8.0 × 10^5 cells/mouse) directly into the right thigh. The mice were kept on a regular chow diet and water, and maintained under a 12 h light/dark cycle in an ambient atmosphere. When the tumor diameter became 5 to 7 mm, the mice were injected via the tail vein with 200 µL PBS solution of Na[o-FESAN] (7.5 mg B/kg). […] After filtering through a hydrophobic filter, boron concentration was measured by inductively coupled plasma optical emission spectroscopy (ICP-OES) using an iCAP 7400 Duo elemental analyzer (Thermo Fisher Scientific Inc., Waltham, MA, USA).
# MDA-MB-231 cells [4] = test: Viability and proliferation after thermal neutron irradiation (BNCT); assay type: cell-based, human
# Procedure: (§3) For neutron irradiation, SKBR-3 and MDA-MB-231 cells were incubated with Na[o-FESAN] at 50 and 100 µM and were irradiated with thermal neutrons at the Triga Mark II nuclear reactor at the University of Pavia. […] Both surviving SKBR-3 and MDA-MB-231 cells that were treated with Na[o-FESAN] […] This clearly indicates the important contribution of neutron capture to induce a long-term cytotoxic effect. Another important point is that the toxic effect was observed using Na[o-FESAN] containing natural B. In fact, the amount of internalized B measured by ICP-MS after 24 h incubation with 50 or 100 µM Na[o-FESAN] contained only 19.9% of the active ^10B isotope. Assuming that in the case of epithelial tumors (with a diameter ranging from 15–20 µm), a density of ca. 10^8 cells for cm^3 is a reasonable number, [76] from the data obtained by ICP-MS analysis, it was possible to calculate the amount of ^10B internalized in cells expressed in ppm (µg/g).
# (§4) SKBR-3 and MDA-MB-231 cells were seeded in 25 cm^2 flasks (12 flasks for each cell line) at a density of 6.5 × 10^5 cells. […]
# (§5) Twenty-four hours after irradiation, cells were detached with 0.05% trypsin and 0.02% EDTA, and cell viability was evaluated using the trypan blue exclusion test and reported as the percentage of cells observed in treated and/or irradiated samples with respect to that observed in control cells. […] The cell growth was followed for 10 days, and at pre-determined times, the cells were washed with PBS, detached with 0.05% trypsin and 0.02% EDTA, and transferred into falcon tubes. Then, cells were sonicated for 30 s at 30% power in ice, and the total cell protein concentration (that is, proportional to the number of cells) from cell lysates was determined by the Bradford method, using bovine serum albumin as a standard. The cell growth rate was calculated as follows: [(number of cells(ti) − number of cells(t0))/number of cells(t0)] × 100 where (ti) is the number of cells measured at the various time intervals and (t0) is the number of cells at the starting point (t = 0) of the proliferation assay.
# SKBR-3 cells [5] = test: as above; assay type: cell-based, human; settings: SKBR-3, 50 and 100 µM, 24 h, thermal neutrons 15 min at 30 kW, growth followed 10 days
# Procedure: as §3, §4, §5
# MDA-MB-231 cells [6] = test: Intracellular ROS (H2DCF-DA) after proton irradiation; assay type: cell-based, human; settings: MDA-MB-231, 50 and 100 µM, 24 h, protons 0.235 Gy, up to 48 h post-irradiation
# Procedure: (§6) In non-irradiated cells (with/without treatment), no appreciable ROS formation was observed.
# (§7) Intracellular ROS levels were measured using the 2′,7′-dichlorodihydrofluorescein diacetate (H2DCF-DA) fluorescent probe as previously described. […] Then, the probe (10 µM) in colorless DMEM medium (FluoroBrite™ DMEM, Gibco®, Waltham, MA, USA) was incubated with the cells for an additional 30 min. at 37 °C. Later, the medium was removed and replaced by a fresh one. The fluorescence intensity was continuously measured up to 48 h with a Varioskan LUX scanning multimode reader (Thermo Fisher Scientific, Waltham, MA, USA). Results of fluorescence (mean ± SD) were expressed as the fold change in fluorescence levels compared with controls (non-irradiated treated cells).
# SKBR-3 cells [7] = test: as above; assay type: cell-based, human; settings: SKBR-3, 50 and 100 µM, 24 h, protons 0.235 Gy, up to 48 h post-irradiation
# Procedure: as §6, §7
# MDA-MB-231 cells [8] = test: Morphological analysis by TEM; assay type: cell-based, human; settings: MDA-MB-231, 50 µM, 24 h
# Procedure: Transmission electron microscopy (TEM) was used to assess the structural integrity of MDA-MB-231 cells and to examine the effects at the organelle level before and 2 h after irradiation with proton beams (2.0 MeV).
# MDA-MB-231 cells were seeded into 6-well plates at approx. 70% confluence. After 24 h, cells were treated with Na[o-FESAN] at 50 µM for 24 h. After incubation, cells were irradiated with a proton beam as described above and processed for TEM analysis 2 h later, following a previously described method. Briefly, the preparation of the cells included several steps of fixation: primary fixation with 3% glutaraldehyde in 0.1 M sodium cacodylate buffer, pH 7.3; secondary fixation with 1% osmium tetroxide in 0.1 M sodium cacodylate buffer, pH 7.3 for 3 h; tertiary fixation and contrasting with 0.5% uranyl acetate in the same buffer for 1 h, dehydration with ethanol and resin (Epon-Araldite) (Merck, Darmstadt, Germany) infiltration and embedding. The stained cells were then photographed and studied using a JEOL 100-SX electron microscope JEOL, Tokyo, Japan.
# [9] = set-up: method as in PMID 24737689, PMID 35470838; settings: cited from earlier work
# [10] = set-up: method as in PMID 36373493; settings: cited from earlier work
substance,measurement,setting,value
"[3,3′-Fe(1,2-C2B9H11)2]^− [Na[o-FESAN]]",IC50,MDA-MB-231 cells [1],103 ± 24.9 µM
same,IC50,SKBR-3 cells [2],83.5 ± 18.6 µM
same,"Clearance in blood and main organs (heart, liver, lung, kidney, spleen, muscle)",[3],slow
same,Tumor uptake,[3],remained relatively high
same,Proliferation of surviving cells after neutron irradiation,"MDA-MB-231 cells [4]; MDA-MB-231, 50 and 100 µM, 24 h, thermal neutrons 15 min at 30 kW, growth followed 10 days",marked inhibition of proliferation
same,Number of viable cells after treatment and neutron irradiation vs non-treated irradiated cells,"MDA-MB-231 cells [4]; MDA-MB-231, 24 h post irradiation, trypan blue",significantly different
same,Proliferation of surviving cells after neutron irradiation,SKBR-3 cells [5],marked inhibition of proliferation
same,ROS levels after proton irradiation vs non-irradiated controls,MDA-MB-231 cells [6],increased ROS levels in a dose-dependent manner
same,ROS levels after proton irradiation vs non-irradiated controls,SKBR-3 cells [7],increased ROS levels in a dose-dependent manner
same,"Cell morphology (TEM), no irradiation",MDA-MB-231 cells [8],moderate amount of vacuolization
same,"Cell morphology (TEM), 2 h after proton irradiation",MDA-MB-231 cells [8]; proton beam 2.0 MeV,necrosis
same,Solubility in water,[9],approx. 1 M
same,Stability in cellular medium,[10],did not suffer degradation
